Data on two compounds can be found in ChEMBL document CHEMBL5634160, “Synthesis, biological evaluation and action mechanism of 7H-[1,2,4] triazolo [3,4-b] [1,3,4] thiadiazine-phenylhydrazone derivatives as α-glucosidase inhibitors” (Eur J Med Chem, 2023).

In general, IC50 refers to the concentration needed to halve the response being measured. A higher IC50 goes with a need for much substance.

One series deals with Alpha-glucosidase (Saccharomyces cerevisiae S288c, UniProt P53341+P38158+P07265). In words: Inhibition of Saccharomyces cerevisiae alpha-glucosidase using nitrophenol-alpha-D-glucopyranoside (pNPG) as substrate incubated for 15 mins. It counts as protein assay.
Series [1] has as its system COc1cc(/C=N/Nc2nnc3n2N=C(c2ccccc2)CS3)cc(OC)c1O. In words: Mixed-type inhibition of Saccharomyces cerevisiae alpha-glucosidase using nitrophenol-alpha-D-glucopyranoside (pNPG) as substrate assessed as Vmax at 24 to 48 uM measured after 15 mins by Lineweaver-Burk plot analysis. Conditions: dose 24-48 µM. It counts as protein assay.

Alpha-glucosidase (Saccharomyces cerevisiae S288c), sequence (P07265 whole entry, looked up): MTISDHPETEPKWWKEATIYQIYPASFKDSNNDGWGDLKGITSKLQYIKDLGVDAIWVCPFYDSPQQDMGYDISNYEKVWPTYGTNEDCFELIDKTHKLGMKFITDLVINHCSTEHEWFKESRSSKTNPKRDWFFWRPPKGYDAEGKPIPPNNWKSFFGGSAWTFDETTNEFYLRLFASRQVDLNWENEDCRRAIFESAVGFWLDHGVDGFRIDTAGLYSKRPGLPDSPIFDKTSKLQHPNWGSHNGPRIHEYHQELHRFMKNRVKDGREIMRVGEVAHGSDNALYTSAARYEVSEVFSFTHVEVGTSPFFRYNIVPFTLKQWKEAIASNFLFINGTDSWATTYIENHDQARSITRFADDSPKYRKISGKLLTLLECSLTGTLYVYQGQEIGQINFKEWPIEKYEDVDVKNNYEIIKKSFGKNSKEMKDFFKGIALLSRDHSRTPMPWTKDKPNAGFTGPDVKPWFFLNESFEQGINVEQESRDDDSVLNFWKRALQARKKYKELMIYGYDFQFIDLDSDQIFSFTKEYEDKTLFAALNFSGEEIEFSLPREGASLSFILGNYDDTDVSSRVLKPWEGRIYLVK
Alpha-glucosidase (Saccharomyces cerevisiae S288c), sequence (P38158 whole entry, looked up): as the sequence (P07265 whole entry, looked up) above, with R273T, V305L counted along it
Alpha-glucosidase (Saccharomyces cerevisiae S288c), sequence (P53341 whole entry, looked up): as the sequence (P07265 whole entry, looked up) above, with R273T, F467L counted along it

For the compound `COc1ccc(/C=N/Nc2nnc3n2N=C(c2ccccc2)CS3)cc1OC`, on Alpha-glucosidase, the IC50 was found to be 140.2 µM.

For “Alpha-glucosidase (Saccharomyces cerevisiae S288c) (from UniProt P53341+P38158+P07265)”, in series [1], the Vmax turned out to be 0.07 µM/L.min.
